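All cell lines were grown in 96-well plates and treated with compound for 48 hours. Abbreviation: GI50, concentration required for 50% inhibition of growth.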 Activity calls are given as the source filed them. No stated cut-off is given here; in the data, active = GI50 up to about 1.1 µM and inactive = higher.
Key:
Test in all cases: inhibition of tumour cell growth, NCI panel, 48 h
[1] = test system: 786-0
[2] = test system: A498
[3] = test system: A549
[4] = test system: ACHN
[5] = test system: CAKI-1
[6] = test system: CCRF-CEM
[7] = test system: COLO 205
[8] = test system: DLD-1
[9] = test system: DMS-114
[10] = test system: DMS-273
[11] = test system: EKVX
[12] = test system: HCC 2998
[13] = test system: HCT-116
[14] = test system: HCT-15
[15] = test system: HOP-18
[16] = test system: HOP-62
[17] = test system: HOP-92
[18] = test system: IGROV-1
[19] = test system: K562
[20] = test system: KM-20L2
[21] = test system: KM12
[22] = test system: LOX IMVI
[23] = test system: LXFL 529
[24] = test system: M14
[25] = test system: M19-MEL
[26] = test system: MOLT-4
[27] = test system: Malme-3M
[28] = test system: NCI-H226
[29] = test system: NCI-H23
[30] = test system: NCI-H460
[31] = test system: NCI-H522
[32] = test system: OVCAR-3
[33] = test system: OVCAR-4
[34] = test system: OVCAR-5
[35] = test system: OVCAR-8
[36] = test system: RXF 393
[37] = test system: SF-268
[38] = test system: SF-295
[39] = test system: SF-539
[40] = test system: SK-MEL-28
[41] = test system: SK-MEL-2
[42] = test system: SK-MEL-5
[43] = test system: SK-OV-3
[44] = test system: SN12C
[45] = test system: SNB-19
[46] = test system: SNB-75
[47] = test system: SNB-78
[48] = test system: SW-620
[49] = test system: TK-10
[50] = test system: U-251
[51] = test system: UACC-257
[52] = test system: UACC-62
[53] = test system: UO-31
[54] = test system: XF498
[55] = test system: HL-60
[56] = test system: RPMI-8226
[57] = test system: SR
[58] = test system: HT-29
[59] = test system: RXF 631
[60] = test system: MCF7
[61] = test system: MDA-N

SMILES: CC(C)(C)C1CC[C@H]2c3c([nH]c4ccccc34)[C@H]3C(=O)N(c4ccc(F)cc4)C(=O)[C@H]3[C@H]2C1 (stereo partly drawn)
- GI50 [1]: 11.3 µM (inactive)
- GI50 [2]: 29.9 µM (inactive)
- GI50 [3]: 12 µM (inactive)
- GI50 [4]: 14.1 µM (inactive)
- GI50 [5]: 17.9 µM (inactive)
- GI50 [6]: 16.7 µM (inactive)
- GI50 [7]: 14.5 µM (inactive)
- GI50 [8]: 16.8 µM (inactive)
- GI50 [9]: 17.1 µM (inactive)
- GI50 [10]: 17.8 µM (inactive)
- GI50 [11]: 16.3 µM (inactive)
- GI50 [12]: 13.6 µM (inactive)
- GI50 [13]: 11.6 µM (inactive)
- GI50 [14]: 20.7 µM
- GI50 [15]: 17.1 µM (inactive)
- GI50 [16]: 16.5 µM (inactive)
- GI50 [17]: 28.1 µM (inactive)
- GI50 [18]: 17 µM (inactive)
- GI50 [19]: 20.7 µM (inactive)
- GI50 [20]: 17.5 µM (inactive)
- GI50 [21]: 14.1 µM (inactive)
- GI50 [22]: 20.3 µM (inactive)
- GI50 [23]: 16 µM (inactive)
- GI50 [24]: 18.5 µM (inactive)
- GI50 [25]: 17.1 µM (inactive)
- GI50 [26]: 13.2 µM (inactive)
- GI50 [27]: 16.9 µM (inactive)
- GI50 [28]: 19.1 µM (inactive)
- GI50 [29]: 18.6 µM (inactive)
- GI50 [30]: 13.6 µM (inactive)
- GI50 [31]: 12.4 µM (inactive)
- GI50 [32]: 16.7 µM (inactive)
- GI50 [33]: 11.2 µM (inactive)
- GI50 [34]: 28.9 µM (inactive)
- GI50 [35]: 12.1 µM (inactive)
- GI50 [36]: 27.4 µM (inactive)
- GI50 [37]: 13.6 µM (inactive)
- GI50 [38]: 14.8 µM (inactive)
- GI50 [39]: 18.9 µM (inactive)
- GI50 [40]: 23.6 µM (inactive)
- GI50 [41]: 15.8 µM (inactive)
- GI50 [42]: 18.7 µM (inactive)
- GI50 [43]: 17.8 µM (inactive)
- GI50 [44]: 11.1 µM (inactive)
- GI50 [45]: 15.9 µM (inactive)
- GI50 [46]: 10.5 µM (inactive)
- GI50 [47]: 18.4 µM (inactive)
- GI50 [48]: 17 µM (inactive)
- GI50 [49]: 16.3 µM (inactive)
- GI50 [50]: 8.75 µM (inactive)
- GI50 [51]: 22.6 µM (inactive)
- GI50 [52]: 15.5 µM (inactive)
- GI50 [53]: 15.8 µM (inactive)
- GI50 [54]: 14.2 µM (inactive)

SMILES: COc1ccc(N(C)Sc2ccccc2)cc1
- GI50 [1]: 16.9 µM (inactive)
- GI50 [3]: 39.4 µM (inactive)
- GI50 [6]: 6.38 µM (inactive)
- GI50 [7]: > 100 µM (inactive)
- GI50 [8]: 47.5 µM (inactive)
- GI50 [9]: 36.6 µM (inactive)
- GI50 [10]: 34.4 µM (inactive)
- GI50 [12]: > 100 µM (inactive)
- GI50 [13]: 43.7 µM (inactive)
- GI50 [14]: 38.1 µM
- GI50 [55]: 15.1 µM (inactive)
- GI50 [15]: 68.4 µM (inactive)
- GI50 [16]: 95.5 µM (inactive)
- GI50 [17]: 79.8 µM (inactive)
- GI50 [18]: 19.9 µM (inactive)
- GI50 [19]: 41.4 µM (inactive)
- GI50 [20]: 55.6 µM (inactive)
- GI50 [21]: 56.6 µM (inactive)
- GI50 [22]: 31.1 µM (inactive)
- GI50 [23]: 45.3 µM (inactive)
- GI50 [24]: 52.5 µM (inactive)
- GI50 [25]: 69 µM (inactive)
- GI50 [26]: 13.1 µM (inactive)
- GI50 [27]: > 100 µM (inactive)
- GI50 [29]: 83.4 µM (inactive)
- GI50 [30]: 74.5 µM (inactive)
- GI50 [31]: 38.8 µM (inactive)
- GI50 [32]: 52.4 µM (inactive)
- GI50 [34]: > 100 µM (inactive)
- GI50 [35]: 49.9 µM (inactive)
- GI50 [56]: 36.1 µM (inactive)
- GI50 [36]: 19.9 µM (inactive)
- GI50 [37]: 27.4 µM (inactive)
- GI50 [38]: 55.1 µM (inactive)
- GI50 [39]: 20.4 µM (inactive)
- GI50 [40]: 55.2 µM (inactive)
- GI50 [41]: 65.5 µM (inactive)
- GI50 [42]: 47.4 µM (inactive)
- GI50 [43]: > 100 µM (inactive)
- GI50 [44]: 21.1 µM (inactive)
- GI50 [45]: 51.1 µM (inactive)
- GI50 [47]: > 100 µM (inactive)
- GI50 [57]: 43.7 µM (inactive)
- GI50 [48]: 43.7 µM (inactive)
- GI50 [49]: > 100 µM (inactive)
- GI50 [50]: 32.8 µM (inactive)
- GI50 [51]: 37 µM (inactive)
- GI50 [52]: 34.7 µM (inactive)
- GI50 [53]: 34.8 µM (inactive)
- GI50 [54]: 24 µM (inactive)

SMILES: Clc1ccc2c(c1)[nH]c1c2nc2ccccn21
- GI50 [1]: 18.9 µM (inactive)
- GI50 [2]: 24.2 µM (inactive)
- GI50 [3]: 25.1 µM (inactive)
- GI50 [13]: 19.3 µM (inactive)
- GI50 [58]: 15.2 µM (inactive)
- GI50 [18]: 40.8 µM (inactive)
- GI50 [20]: 14.7 µM (inactive)
- GI50 [21]: 16.9 µM (inactive)
- GI50 [24]: 20.2 µM (inactive)
- GI50 [28]: 25.4 µM (inactive)
- GI50 [29]: 21.6 µM (inactive)
- GI50 [31]: 19.8 µM (inactive)
- GI50 [56]: 14.7 µM (inactive)
- GI50 [59]: 22.5 µM (inactive)
- GI50 [37]: 19 µM (inactive)
- GI50 [39]: 15.9 µM (inactive)
- GI50 [40]: 17.4 µM (inactive)
- GI50 [43]: 27.3 µM (inactive)
- GI50 [45]: 19.4 µM (inactive)
- GI50 [47]: 23.6 µM (inactive)
- GI50 [57]: 17.1 µM (inactive)
- GI50 [48]: 24.8 µM (inactive)
- GI50 [49]: 16.8 µM (inactive)
- GI50 [51]: 16.7 µM (inactive)
- GI50 [53]: 18.4 µM (inactive)

SMILES: COc1ccc(/C=C\c2cc(OC)c(OC)c(OC)c2)cc1OC(=O)C(N)CCC(=O)O (stereo not drawn)
- GI50 [1]: 0.000764 µM (active)
- GI50 [3]: 0.000802 µM (active)
- GI50 [6]: 0.000117 µM (active)
- GI50 [8]: < 1e-05 µM (active)
- GI50 [9]: < 1e-05 µM (active)
- GI50 [10]: < 1e-05 µM (active)
- GI50 [13]: 0.00015 µM (active)
- GI50 [55]: 7.5e-05 µM (active)
- GI50 [15]: 0.0764 µM (active)
- GI50 [58]: 1.43 µM (inactive)
- GI50 [20]: 0.00252 µM (active)
- GI50 [21]: 0.000131 µM (active)
- GI50 [23]: < 1e-05 µM (active)
- GI50 [24]: 0.00016 µM (active)
- GI50 [25]: < 1e-05 µM (active)
- GI50 [60]: 0.00229 µM (active)
- GI50 [61]: 0.05 nM (active)
- GI50 [26]: 0.000135 µM (active)
- GI50 [27]: 0.000105 µM (active)
- GI50 [28]: 0.000632 µM (active)
- GI50 [29]: 0.000114 µM (active)
- GI50 [30]: 0.000133 µM (active)
- GI50 [31]: 8.51e-05 µM (active)
- GI50 [32]: 0.00011 µM (active)
- GI50 [35]: 0.000143 µM (active)
- GI50 [56]: 0.0001 µM (active)
- GI50 [39]: 8.22e-05 µM (active)
- GI50 [40]: 0.000188 µM (active)
- GI50 [47]: < 1e-05 µM (active)
- GI50 [57]: 0.000208 µM (active)
- GI50 [48]: 0.00015 µM (active)
- GI50 [51]: 0.000465 µM (active)
- GI50 [52]: 8.02e-05 µM (active)
- GI50 [54]: < 1e-05 µM (active)
